The record followed here is paper PMC8496261 (RSC Chemical Biology, 2021).

For assay [1], the system named is MDA-MB-468 breast cancer cells (mKate nuclear label). As to the kind of experiment: Cell uptake assay imaged by confocal fluorescence microscopy. The conditions noted are these: MDA-MB-468 cells, 10 μM peptide, 24 h, fixed. Format: cell-based, human.
The target of another assay is PCNA (hPCNA) (Homo sapiens, UniProt P12004). As to the kind of experiment: SPR steady state binding affinity for PCNA. The conditions noted are these: for PCNA binding affinity, in words: SPR, 2 compared with peptide 1, 9 compared with peptide 7.

Numbered stars: 1 amine (or outer) side, 2 acyl side, 3 side chain; on linkers, the order of the positions; unused ones are H or OH. Bridge positions count the residues as written; N and C are the ends. Peptide text beside a SMILES is read from it. * marks the point of attachment. FITC = O=C1OC2(c3ccc(O)cc3Oc3cc(O)ccc32)c2ccc(NC(=S)*)cc21; X1 = Cc1c(C[*:1])n2c(C[*:2])c(C)c(=O)n2c1=O; βAla = NCCC(=O)O

Sequence of PCNA (hPCNA) (P12004 whole entry): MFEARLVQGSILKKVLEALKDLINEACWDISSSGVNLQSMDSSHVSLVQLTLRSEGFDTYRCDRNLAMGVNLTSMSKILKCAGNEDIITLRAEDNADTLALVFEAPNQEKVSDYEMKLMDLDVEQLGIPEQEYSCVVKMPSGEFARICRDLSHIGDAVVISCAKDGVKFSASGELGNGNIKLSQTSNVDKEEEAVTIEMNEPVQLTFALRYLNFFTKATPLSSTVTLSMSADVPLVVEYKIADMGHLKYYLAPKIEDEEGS

Consider `CSCC[C@@H]1NC(=O)[C@H](CO)NC(=O)[C@@H](NC(=O)[C@H](CCC(N)=O)NC(=O)[C@H](CCCNC(=N)N)NC(=O)CCNC(=S)Nc2ccc3c(c2)C(=O)OC32c3ccc(O)cc3Oc3cc(O)ccc32)CSCc2c(C)c(=O)n3c(=O)c(C)c(n23)CSC[C@@H](C(=O)N[C@@H](Cc2ccccc2)C(=O)N[C@@H](Cc2ccc(O)cc2)C(=O)N[C@@H](Cc2c[nH]cn2)C(=O)N[C@@H](CO)C(=O)N[C@@H](CCCCN)C(N)=O)NC(=O)[C@H]([C@@H](C)O)NC1=O` [Peptide 9] ({FITC-βAla}-RQCSMTCFYHSK-NH2; linker 3-7 via X1), for which the “intracellular distribution of peptide fluorescence” value in assay [1] was “both blue and green fluorescence present throughout the cell cytoplasm”. Besides, the “PCNA binding affinity, in words” value at PCNA (hPCNA) was “dramatically decreases the binding affinity”.

On PCNA (hPCNA) (SEM), `CSCC[C@H](NC(=O)[C@H](CO)NC(=O)[C@@H](NC(=O)[C@H](CCC(N)=O)NC(=O)[C@@H](N)CCCNC(=N)N)[C@@H](C)O)C(=O)N[C@H](C(=O)N[C@@H](CC(=O)O)C(=O)N[C@@H](Cc1ccccc1)C(=O)N[C@@H](Cc1ccc(O)cc1)C(=O)N[C@@H](Cc1c[nH]cn1)C(=O)N[C@@H](CO)C(=O)N[C@@H](CCCCN)C(N)=O)[C@@H](C)O` [Peptide 1] (H-RQTSMTDFYHSK-NH2) gave a Kd of 0.102 ± 0.005 µM.

Take Ac-RQCSMTCFYHSK-NH2 [Peptide 2]: the “PCNA binding affinity, in words” value on PCNA (hPCNA) is “significantly reduced PCNA affinity”.

As usually defined, the Kd is the equilibrium constant for the complex coming apart. Higher therefore signals lower affinity.
